# Counter-ions that a name gives are not always drawn. Like-named read-outs stand apart in the source and are kept apart here.
# Assays:
# Assay in all cases: Antibacterial activity, microbroth dilution method (MIC)
# [1] = test system: super sensitive Gram-negative Escherichia coli (E. coli) BAS849; assay type: cell-based; conditions: Escherichia coli, read-out: MIC, E. coli BAS849
# Outline: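 Microbroth dilution was used. MIC, in μg/mL, is the lowest drug concentration preventing macroscopically visible growth under the test conditions.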
# [2] = test system: Gram-positive Staphylococcus aureus (S. aureus) 29213; assay type: cell-based; conditions: Staphylococcus aureus, Gram-positive S. aureus 29213
# Outline: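 Lowest concentration stopping macroscopically visible growth under test conditions, by broth microdilution, defines the MIC (μg/mL).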
# [3] = test system: control Gram-negative E. coli 25922 strain; assay type: cell-based, Escherichia coli; conditions: Escherichia coli
# Outline: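 Broth microdilution; endpoint = no macroscopic growth; value = lowest inhibiting concn, μg/mL.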
# [4] = super sensitive Gram-negative E. coli BAS849, microbroth dilution
Structure (SMILES),"MIC [1, 4]",MIC [2],MIC [3],MIC [1]
"CCNCc1cc2cc3c(cc2n1C)NCCc1c-3[nH]c(=O)c(C(=O)O)c1O.Cl [Cpd 100, 10-((ethylamino)methyl)-4-hydroxy-9-methyl-2-oxo-1,2,5,6,7,9-hexahydropyrido[2′,3′:4,5]azepino[3,2-f]indole-3-carboxylic acid hydrochloride]",1 to 3.5 µg/mL,12.5 to 150 µg/mL,12.5 to 150 µg/mL,–
"CC(C)NCc1cc2cc3c(cc2n1C)NCCc1c-3[nH]c(=O)c(C(=O)O)c1O.Cl [Cpd 101, 4-hydroxy-10-((isopropylamino)methyl)-9-methyl-2-oxo-1,2,5,6,7,9-hexahydropyrido[2′,3′:4,5]azepino[3,2-f]indole-3-carboxylic acid hydrochloride]",1 to 3.5 µg/mL,12.5 to 150 µg/mL,3.5 to 12.5 µg/mL,–
"Cl.Cn1c(CNC(C)(C)C)cc2cc3c(cc21)NCCc1c-3[nH]c(=O)c(C(=O)O)c1O [Cpd 102, 10-((tert-butylamino)methyl)-4-hydroxy-9-methyl-2-oxo-1,2,5,6,7,9-hexahydropyrido[2′,3′:4,5]azepino[3,2-f]indole-3-carboxylic acid hydrochloride]",1 to 3.5 µg/mL,12.5 to 150 µg/mL,3.5 to 12.5 µg/mL,–
"CNCc1cc2cc3c(cc2n1C)NCCCc1c-3[nH]c(=O)c(C(=O)O)c1O.Cl [Cpd 103, 4-hydroxy-10-methyl-11-((methylamino)methyl)-2-oxo-2,5,6,7,8,10-hexahydro-1H-pyrido[2′,3′:4,5]azocino[3,2-f]indole-3-carboxylic acid hydrochloride]",1 to 3.5 µg/mL,12.5 to 150 µg/mL,12.5 to 150 µg/mL,–
"CCNCc1cc2cc3c(cc2n1C)NCCCc1c-3[nH]c(=O)c(C(=O)O)c1O.Cl [Cpd 104, 11-((ethylamino)methyl)-4-hydroxy-10-methyl-2-oxo-2,5,6,7,8,10-hexahydro-1H-pyrido[2′,3′:4,5]azocino[3,2-f]indole-3-carboxylic acid hydrochloride]",1 to 3.5 µg/mL,12.5 to 150 µg/mL,3.5 to 12.5 µg/mL,–
"CC(C)NCc1cc2cc3c(cc2n1C)NCCCc1c-3[nH]c(=O)c(C(=O)O)c1O.Cl [Cpd 105, 4-hydroxy-11-((isopropylamino)methyl)-10-methyl-2-oxo-2,5,6,7,8,10-hexahydro-1H-pyrido[2′,3′:4,5]azocino[3,2-f]indole-3-carboxylic acid hydrochloride]",1 to 3.5 µg/mL,12.5 to 150 µg/mL,3.5 to 12.5 µg/mL,–
"CC1Cc2cc3c(cc2-c2[nH]c(=O)c(C(=O)O)c(O)c21)OCO3 (stereo not drawn) [Cpd 106, 4-hydroxy-5-methyl-2-oxo-1,2,5,6-tetrahydro-[1,3]dioxolo[4′,5′:4,5]benzo[1,2-h]quinoline-3-carboxylic acid]",1 to 3.5 µg/mL,12.5 to 150 µg/mL,12.5 to 150 µg/mL,–
"CC1Cc2cc(N3CCCC3)ccc2-c2[nH]c(=O)c(C(=O)O)c(O)c21 (stereo not drawn) [Cpd 107, 4-hydroxy-5-methyl-2-oxo-8-(pyrrolidin-1-yl)-1,2,5,6-tetrahydrobenzo[h]quinoline-3-carboxylic acid]",< 1 µg/mL,3.5 to 12.5 µg/mL,12.5 to 150 µg/mL,–
"CC1Cc2cc(N(C)C)ccc2-c2[nH]c(=O)c(C(=O)O)c(O)c21 (stereo not drawn) [Cpd 108, 8-(dimethylamino)-4-hydroxy-5-methyl-2-oxo-1,2,5,6-tetrahydrobenzo[h]quinoline-3-carboxylic acid]",< 1 µg/mL,3.5 to 12.5 µg/mL,12.5 to 150 µg/mL,–
"CC1Cc2cc(N3CCC(N(C)C)C3)ccc2-c2[nH]c(=O)c(C(=O)O)c(O)c21.Cl (stereo not drawn) [Cpd 109, 8-(3-(dimethylamino)pyrrolidin-1-yl)-4-hydroxy-5-methyl-2-oxo-1,2,5,6-tetrahydrobenzo[h]quinoline-3-carboxylic acid hydrochloride]",3.5 to 12.5 µg/mL,12.5 to 150 µg/mL,12.5 to 150 µg/mL,–
"CC1Cc2cc(N3C[C@@H]4[C@@H](N)[C@@H]4C3)ccc2-c2[nH]c(=O)c(C(=O)O)c(O)c21 (stereo partly drawn) [Cpd 110, 8-((cis,cis)-6-amino-3-azabicyclo[3.1.0]hexan-3-yl)-4-hydroxy-5-methyl-2-oxo-1,2,5,6-tetrahydrobenzo[h]quinoline-3-carboxylic acid trifluoroacetate]",–,12.5 to 150 µg/mL,12.5 to 150 µg/mL,3.5 to 12.5 µg/mL
"Cl.O=C(O)c1c(O)c2c([nH]c1=O)-c1ccc(N3CCCNCC3)cc1CCC2 [Cpd 111, 9-(1,4-diazepan-1-yl)-4-hydroxy-2-oxo-2,5,6,7-tetrahydro-1H-benzo[6,7]cyclohepta[1,2-b]pyridine-3-carboxylic acid hydrochloride]",1 to 3.5 µg/mL,12.5 to 150 µg/mL,12.5 to 150 µg/mL,–
"CN1CCCN(c2ccc3c(c2)CCCc2c-3[nH]c(=O)c(C(=O)O)c2O)CC1.Cl [Cpd 112, 4-hydroxy-9-(4-methyl-1,4-diazepan-1-yl)-2-oxo-2,5,6,7-tetrahydro-1H-benzo[6,7]cyclohepta[1,2-b]pyridine-3-carboxylic acid hydrochloride]",1 to 3.5 µg/mL,12.5 to 150 µg/mL,3.5 to 12.5 µg/mL,–
"CN(C)CCNc1ccc2c(c1)CCCc1c-2[nH]c(=O)c(C(=O)O)c1O.Cl [Cpd 113, 9-((2-(dimethylamino)ethyl)amino)-4-hydroxy-2-oxo-2,5,6,7-tetrahydro-1H-benzo[6,7]cyclohepta[1,2-b]pyridine-3-carboxylic acid hydrochloride]",3.5 to 12.5 µg/mL,12.5 to 150 µg/mL,12.5 to 150 µg/mL,–
"Cl.O=C(O)c1c(O)c2c([nH]c1=O)-c1ccc(N3C[C@H]4CCCN[C@H]4C3)cc1CCC2 [Cpd 114, 9-((4aR,7aR)-hexahydro-1H-pyrrolo[3,4-b]pyridin-6(2H)-yl)-4-hydroxy-2-oxo-2,5,6,7-tetrahydro-1H-benzo[6,7]cyclohepta[1,2-b]pyridine-3-carboxylic acid hydrochloride]",1 to 3.5 µg/mL,12.5 to 150 µg/mL,3.5 to 12.5 µg/mL,–
"CN1CCC[C@@H]2CN(c3ccc4c(c3)CCCc3c-4[nH]c(=O)c(C(=O)O)c3O)C[C@@H]21.Cl [Cpd 115, 4-hydroxy-9-((4aR,7aR)-1-methylhexahydro-1H-pyrrolo[3,4-b]pyridin-6(2H)-yl)-2-oxo-2,5,6,7-tetrahydro-1H-benzo[6,7]cyclohepta[1,2-b]pyridine-3-carboxylic acid hydrochloride]",3.5 to 12.5 µg/mL,12.5 to 150 µg/mL,12.5 to 150 µg/mL,–
"CN(C)C1CCN(c2ccc3c(c2)CCCc2c-3[nH]c(=O)c(C(=O)O)c2O)CC1.Cl [Cpd 116, 9-(4-(dimethylamino)piperidin-1-yl)-4-hydroxy-2-oxo-2,5,6,7-tetrahydro-1H-benzo[6,7]cyclohepta[1,2-b]pyridine-3-carboxylic acid hydrochloride]",3.5 to 12.5 µg/mL,12.5 to 150 µg/mL,12.5 to 150 µg/mL,–
"CN(C)C1CCCN(c2ccc3c(c2)CCCc2c-3[nH]c(=O)c(C(=O)O)c2O)C1.Cl (stereo not drawn) [Cpd 117, 9-(3-(dimethylamino)piperidin-1-yl)-4-hydroxy-2-oxo-2,5,6,7-tetrahydro-1H-benzo[6,7]cyclohepta[1,2-b]pyridine-3-carboxylic acid hydrochloride]",3.5 to 12.5 µg/mL,12.5 to 150 µg/mL,12.5 to 150 µg/mL,–
"Cl.O=C(O)c1c(O)c2c([nH]c1=O)-c1ccc(NC3CCNCC3)cc1CCC2 [Cpd 118, 4-hydroxy-2-oxo-9-(piperidin-4-ylamino)-2,5,6,7-tetrahydro-1H-benzo[6,7]cyclohepta[1,2-b]pyridine-3-carboxylic acid hydrochloride]",12.5 to 150 µg/mL,12.5 to 150 µg/mL,12.5 to 150 µg/mL,–

# Reference: patent US20150038438A1, “ANTIBACTERIAL COMPOUNDS AND METHODS FOR USE” (PTC THERAPEUTICS, INC., priority 2011, published 2015)
